{
  "source": "PubChem BioAssay AID1259407",
  "about": "(Chemical Carcinogenesis Research Information System (CCRIS), 2018)",
  "system": "CCRIS mutagenicity, Ames/micronucleus/aberration tests",
  "assay": "CCRIS mutagenicity studies",
  "key": {"[1]": {"details": "Test System: AMES SALMONELLA TYPHIMURIUM, Strain/Indicator: TA98, Metabolic Activation: NONE, Method: STANDARD PLATE"}, "[2]": {"details": "Test System: AMES SALMONELLA TYPHIMURIUM, Strain/Indicator: TA98, Metabolic Activation: RAT, LIVER, S-9, PHENOBARBITAL, Method: STANDARD PLATE"}, "[3]": {"details": "Test System: AMES SALMONELLA TYPHIMURIUM, Strain/Indicator: TA100, Metabolic Activation: NONE, Method: PREINCUBATION"}, "[4]": {"details": "Test System: AMES SALMONELLA TYPHIMURIUM, Strain/Indicator: TA100, Metabolic Activation: NONE, Method: STANDARD PLATE"}, "[5]": {"details": "Test System: AMES SALMONELLA TYPHIMURIUM, Strain/Indicator: TA100, Metabolic Activation: RAT, LIVER, S-9, PHENOBARBITAL, Method: STANDARD PLATE"}, "[6]": {"details": "Test System: AMES SALMONELLA TYPHIMURIUM, Strain/Indicator: TA98, Metabolic Activation: NONE, Method: PREINCUBATION"}, "[7]": {"details": "Test System: AMES SALMONELLA TYPHIMURIUM, Strain/Indicator: TA100, Metabolic Activation: HAMSTER, LIVER, S-9, AROCLOR 1254 (30%), Method: PREINCUBATION"}, "[8]": {"details": "Test System: AMES SALMONELLA TYPHIMURIUM, Strain/Indicator: TA100, Metabolic Activation: RAT, LIVER, S-9, AROCLOR 1254 (30%), Method: PREINCUBATION"}},
  "note": "Active and inactive are the calls of the source. No rule for the calls is given here.",
  "data": [
    {"smiles": "OC1C=CC=CC1O", "note": "(stereo not drawn)", "values": [
      {"measurement": "mutagenic call", "setting": "[1]", "result": "inactive; negative"},
      {"measurement": "mutagenic call", "setting": "[2]", "result": "inactive; negative"},
      {"measurement": "mutagenic call", "setting": "[3]", "result": "inactive; negative"},
      {"measurement": "mutagenic call", "setting": "[4]", "result": "inactive; negative"},
      {"measurement": "mutagenic call", "setting": "Test System: AMES SALMONELLA TYPHIMURIUM, Strain/Indicator: TA100, Metabolic Activation: RAT, LIVER, S-9, PHENOBARBITAL, Method: PREINCUBATION", "result": "active; positive"},
      {"measurement": "mutagenic call", "setting": "[5]", "result": "active; positive"},
      {"measurement": "mutagenic call", "setting": "Test System: AMES SALMONELLA TYPHIMURIUM, Strain/Indicator: TM677/8-AZAGUANINE, Metabolic Activation: NONE, Method: PREINCUBATION", "result": "inactive; negative"},
      {"measurement": "mutagenic call", "setting": "Test System: AMES SALMONELLA TYPHIMURIUM, Strain/Indicator: TM677/8-AZAGUANINE, Metabolic Activation: NONE, Method: STANDARD PLATE", "result": "active; positive"},
      {"measurement": "mutagenic call", "setting": "Test System: AMES SALMONELLA TYPHIMURIUM, Strain/Indicator: TM677/8-AZAGUANINE, Metabolic Activation: RAT, LIVER, S-9, PHENOBARBITAL, Method: PREINCUBATION", "result": "active; positive"}
    ]},
    {"smiles": "CC1OC1C", "note": "(stereo not drawn)", "values": [
      {"measurement": "mutagenic call", "setting": "Test System: AMES SALMONELLA TYPHIMURIUM, Strain/Indicator: TA97, Metabolic Activation: HAMSTER, LIVER, S-9, AROCLOR 1254 (30%), Method: PREINCUBATION", "result": "inactive; negative"},
      {"measurement": "mutagenic call", "setting": "Test System: AMES SALMONELLA TYPHIMURIUM, Strain/Indicator: TA97, Metabolic Activation: NONE, Method: PREINCUBATION", "result": "inactive; negative"},
      {"measurement": "mutagenic call", "setting": "Test System: AMES SALMONELLA TYPHIMURIUM, Strain/Indicator: TA97, Metabolic Activation: RAT, LIVER, S-9, AROCLOR 1254 (30%), Method: PREINCUBATION", "result": "inactive; negative"},
      {"measurement": "mutagenic call", "setting": "Test System: AMES SALMONELLA TYPHIMURIUM, Strain/Indicator: TA98, Metabolic Activation: HAMSTER, LIVER, S-9, AROCLOR 1254 (30%), Method: PREINCUBATION", "result": "inactive; negative"},
      {"measurement": "mutagenic call", "setting": "[6]", "result": "inactive; negative"},
      {"measurement": "mutagenic call", "setting": "Test System: AMES SALMONELLA TYPHIMURIUM, Strain/Indicator: TA98, Metabolic Activation: RAT, LIVER, S-9, AROCLOR 1254 (30%), Method: PREINCUBATION", "result": "inactive; negative"},
      {"measurement": "mutagenic call", "setting": "[7]", "result": "inactive; negative"},
      {"measurement": "mutagenic call", "setting": "[3]", "result": "inactive; negative"},
      {"measurement": "mutagenic call", "setting": "[8]", "result": "inactive; negative"},
      {"measurement": "mutagenic call", "setting": "Test System: AMES SALMONELLA TYPHIMURIUM, Strain/Indicator: TA1535, Metabolic Activation: HAMSTER, LIVER, S-9, AROCLOR 1254 (30%), Method: PREINCUBATION", "result": "active; positive"},
      {"measurement": "mutagenic call", "setting": "Test System: AMES SALMONELLA TYPHIMURIUM, Strain/Indicator: TA1535, Metabolic Activation: RAT, LIVER, S-9, AROCLOR 1254 (30%), Method: PREINCUBATION", "result": "active; positive"},
      {"measurement": "mutagenic call", "setting": "Test System: AMES SALMONELLA TYPHIMURIUM, Strain/Indicator: TA1537, Metabolic Activation: HAMSTER, LIVER, S-9, AROCLOR 1254 (30%), Method: PREINCUBATION", "result": "inactive; negative"},
      {"measurement": "mutagenic call", "setting": "Test System: AMES SALMONELLA TYPHIMURIUM, Strain/Indicator: TA1537, Metabolic Activation: NONE, Method: PREINCUBATION", "result": "inactive; negative"},
      {"measurement": "mutagenic call", "setting": "Test System: AMES SALMONELLA TYPHIMURIUM, Strain/Indicator: TA1537, Metabolic Activation: RAT, LIVER, S-9, AROCLOR 1254 (30%), Method: PREINCUBATION", "result": "inactive; negative"}
    ]},
    {"smiles": "NC(=O)c1ccc(N)nc1", "values": [
      {"measurement": "mutagenic call", "setting": "Test System: CHINESE HAMSTER OVARY, Strain/Indicator: CHO/6-THIOGUANINE, Metabolic Activation: NONE", "result": "inactive; negative"},
      {"measurement": "mutagenic call", "setting": "Test System: CHINESE HAMSTER OVARY, Strain/Indicator: CHO/6-THIOGUANINE, Metabolic Activation: RAT, LIVER, S-9", "result": "inactive; negative"},
      {"measurement": "mutagenic call", "setting": "Test System: CHINESE HAMSTER OVARY, Strain/Indicator: CHO/OUABAIN, Metabolic Activation: NONE", "result": "inactive; negative"},
      {"measurement": "mutagenic call", "setting": "Test System: CHINESE HAMSTER OVARY, Strain/Indicator: CHO/OUABAIN, Metabolic Activation: RAT, LIVER, S-9", "result": "inactive; negative"}
    ]},
    {"smiles": "C[C@@H]1CC[C@@]2(OC1)O[C@H]1CC3[C@@H]4CC=C5C[C@@H](O[C@@H]6O[C@H](CO)[C@@H](O[C@@H]7O[C@@H](C)[C@H](O)[C@@H](O)[C@H]7O)[C@H](O)[C@H]6O[C@@H]6O[C@@H](C)[C@H](O)[C@@H](O)[C@H]6O)CC[C@]5(C)[C@H]4CC[C@]3(C)[C@H]1[C@@H]2C", "note": "(stereo partly drawn)", "values": [
      {"measurement": "mutagenic call", "setting": "[1]", "result": "inactive; negative"},
      {"measurement": "mutagenic call", "setting": "[2]", "result": "inactive; negative"},
      {"measurement": "mutagenic call", "setting": "[4]", "result": "inactive; negative"},
      {"measurement": "mutagenic call", "setting": "[5]", "result": "inactive; negative"}
    ]},
    {"smiles": "c1ccc2cc3c(ccc4c5ccccc5ccc34)cc2c1", "values": [
      {"measurement": "mutagenic call", "setting": "Test System: AMES SALMONELLA TYPHIMURIUM, Strain/Indicator: TA100, Metabolic Activation: RAT, LIVER, MICROSOMES, AROCLOR 1254, Method: STANDARD PLATE", "result": "inactive; negative"},
      {"measurement": "mutagenic call", "setting": "Test System: AMES SALMONELLA TYPHIMURIUM, Strain/Indicator: TA100, Metabolic Activation: RAT, LIVER, MICROSOMES, BENZO[B]CHRYSENE, Method: STANDARD PLATE", "result": "inactive; negative"},
      {"measurement": "mutagenic call", "setting": "Test System: AMES SALMONELLA TYPHIMURIUM, Strain/Indicator: TA100, Metabolic Activation: RAT, LIVER, MICROSOMES, Method: STANDARD PLATE", "result": "inactive; negative"}
    ]},
    {"smiles": "CC(=O)O[C@@H]1[C@H](OC(C)=O)COC(Nc2ccc([N+](=O)[O-])cc2)[C@@H]1OC(C)=O", "note": "(stereo partly drawn)", "values": [
      {"measurement": "mutagenic call", "setting": "[4]", "result": "active; positive"}
    ]},
    {"smiles": "ClC1=C(Cl)C2(Cl)C3C(Cl)C(Cl)CC3C1(Cl)C2(Cl)Cl", "note": "(stereo not drawn)", "values": [
      {"measurement": "mutagenic call", "setting": "Test System: AMES SALMONELLA TYPHIMURIUM, Strain/Indicator: TA98, Metabolic Activation: HAMSTER, LIVER, S-9, AROCLOR 1254 (5, 10 OR 30%), Method: PREINCUBATION", "result": "inactive; negative"},
      {"measurement": "mutagenic call", "setting": "[6]", "result": "inactive; negative"},
      {"measurement": "mutagenic call", "setting": "Test System: AMES SALMONELLA TYPHIMURIUM, Strain/Indicator: TA98, Metabolic Activation: RAT, LIVER, S-9, AROCLOR 1254 (5, 10 OR 30%), Method: PREINCUBATION", "result": "inactive; negative"},
      {"measurement": "mutagenic call", "setting": "[7]", "result": "active; positive"},
      {"measurement": "mutagenic call", "setting": "Test System: AMES SALMONELLA TYPHIMURIUM, Strain/Indicator: TA100, Metabolic Activation: NONE, Method: DESICCATOR", "result": "active; positive"},
      {"measurement": "mutagenic call", "setting": "[3]", "result": "inactive; negative"},
      {"measurement": "mutagenic call", "setting": "[8]", "result": "active; positive"},
      {"measurement": "mutagenic call", "setting": "Test System: CHINESE HAMSTER V-79, Strain/Indicator: V-79/OUABAIN, Metabolic Activation: NONE, Method: STANDARD PLATE", "result": "active; positive"}
    ]}
  ]
}
